Reference: PubChem BioAssay AID2060614 (Molecular Pharmacology Branch, DTP, NCI, 2025)

Tested on: 598228-144-R-J1-PDC complex spheroids, viability
Assay: Anticancer human tumor 598228-144-R-J1-PDC patient-derived serous endometrial adenocarcinoma cell line growth inhibition [CLK]
Conditions: for IC50: curve of first compound; for viability, T/C: stronger effect = lower value
Procedure, shortened: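 Patient-derived tumor cells grown as complex spheroids with HUVEC endothelial cells and mesenchymal stem cells, treated with drug combinations. Concentrations descend in half-log steps from near clinical Cmax, or from 10 microM if Cmax unknown.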

[1] = second compound 0.0316 µM, first compound 0.0316 µM
[2] = second compound 0.0316 µM, first compound 0.1 µM
[3] = second compound 0.0316 µM, first compound 0.316 µM
[4] = second compound 0.0316 µM, first compound 1 µM
[5] = second compound 0.0316 µM, first compound 3.16 µM
[6] = second compound 0.0316 µM, first compound 10 µM
[7] = second compound 0.1 µM, first compound 0.0316 µM
[8] = second compound 0.1 µM, first compound 0.1 µM
[9] = second compound 0.1 µM, first compound 0.316 µM
[10] = second compound 0.1 µM, first compound 1 µM
[11] = second compound 0.1 µM, first compound 3.16 µM
[12] = second compound 0.1 µM, first compound 10 µM
[13] = second compound 0.316 µM, first compound 0.0316 µM
[14] = second compound 0.316 µM, first compound 0.1 µM
[15] = second compound 0.316 µM, first compound 0.316 µM
[16] = second compound 0.316 µM, first compound 1 µM
[17] = second compound 0.316 µM, first compound 3.16 µM
[18] = second compound 0.316 µM, first compound 10 µM
[19] = second compound 1 µM, first compound 0.0316 µM
[20] = second compound 1 µM, first compound 0.1 µM
[21] = second compound 1 µM, first compound 0.316 µM
[22] = second compound 1 µM, first compound 1 µM
[23] = second compound 1 µM, first compound 3.16 µM
[24] = second compound 1 µM, first compound 10 µM
[25] = second compound 3.16 µM, first compound 0.0316 µM
[26] = second compound 3.16 µM, first compound 0.1 µM
[27] = second compound 3.16 µM, first compound 0.316 µM
[28] = second compound 3.16 µM, first compound 1 µM
[29] = second compound 3.16 µM, first compound 3.16 µM
[30] = second compound 3.16 µM, first compound 10 µM
[31] = second compound 10 µM, first compound 0.0316 µM
[32] = second compound 10 µM, first compound 0.1 µM
[33] = second compound 10 µM, first compound 0.316 µM
[34] = second compound 10 µM, first compound 1 µM
[35] = second compound 10 µM, first compound 3.16 µM
[36] = second compound 10 µM, first compound 10 µM
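Also: spheroids exposed to compounds for seven days before readout.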
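For viability, T/C in this document: 100% = DMSO vehicle control wells.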

COc1ccc([C@@H](O)c2cc(-c3ncnc4cc(N5CCOCC5)ccc34)c(F)cc2Cl)nn1 + CN1CCN(c2cc(C(=O)Nc3cc4cc(-c5cnn(C)c5)ccc4cn3)ccn2)CC1 was tested, and the IC50 (second compound 0.0316 µM) was 8.4 µM, the IC50 (second compound 0.1 µM) was 5.36 µM and the IC50 (second compound 0.316 µM) was less than 0.0316 µM. It also gave an IC50 (second compound 1 µM) of less than 0.0316 µM, an IC50 (second compound 3.16 µM) of less than 0.0316 µM and an IC50 (second compound 10 µM) of less than 0.0316 µM. The viability, T/C [1] was 122%, the viability, T/C [2] was 123% and the viability, T/C [3] was 105%. For the same compound, the viability, T/C [4] was 92.7%, the viability, T/C [5] was 65.3% and the viability, T/C [6] was 47.4%. It also gave a viability, T/C [7] of 123%, a viability, T/C [8] of 123% and a viability, T/C [9] of 89%. The viability, T/C [10] was 88.8%, the viability, T/C [11] was 59.5% and the viability, T/C [12] was 36.8%. For the same compound, the viability, T/C [13] was 15.2%, the viability, T/C [14] was 15.1% and the viability, T/C [15] was 15.9%. It also gave a viability, T/C [16] of 9.86%, a viability, T/C [17] of 7.76% and a viability, T/C [18] of 5.23%. For the same compound, the viability, T/C [19] was 1.49%, the viability, T/C [20] was 1.33% and the viability, T/C [21] was 1.57%. It also gave a viability, T/C [22] of 1.3%, a viability, T/C [23] of 1.12% and a viability, T/C [24] of 3.63%. For the same compound, the viability, T/C [25] was 1.56%, the viability, T/C [26] was 2.15% and the viability, T/C [27] was 1.78%. It also gave a viability, T/C [28] of 2.12%, a viability, T/C [29] of 1.65% and a viability, T/C [30] of 2.04%. For the same compound, the viability, T/C [31] was 0.95%, the viability, T/C [32] was 0.79% and the viability, T/C [33] was 4.21%. The viability, T/C [34] was 1.31%, the viability, T/C [35] was 3.59% and the viability, T/C [36] was 3.19%.

With COc1cccc2c1C(=O)c1c(O)c3c(c(O)c1C2=O)CC(O)(C(=O)CO)CC3OC1CC(N)C(O)C(C)O1 (stereo unspecified) + CN1CCN(c2cc(C(=O)Nc3cc4cc(-c5cnn(C)c5)ccc4cn3)ccn2)CC1 the IC50 (second compound 0.0316 µM) was 0.263 µM, the IC50 (second compound 0.1 µM) was 0.224 µM and the IC50 (second compound 0.316 µM) was less than 0.0316 µM. For the same compound, the IC50 (second compound 1 µM) was less than 0.0316 µM, the IC50 (second compound 3.16 µM) was less than 0.0316 µM and the IC50 (second compound 10 µM) was less than 0.0316 µM. The viability, T/C [1] was 114%, the viability, T/C [2] was 116% and the viability, T/C [3] was 37.5%. For the same compound, the viability, T/C [4] was 7.36%, the viability, T/C [5] was 0.34% and the viability, T/C [6] was 0.49%. The viability, T/C [7] was 150%, the viability, T/C [8] was 109% and the viability, T/C [9] was 24.6%. The viability, T/C [10] was 3.45%, the viability, T/C [11] was 0.34% and the viability, T/C [12] was 1.62%. The viability, T/C [13] was 14.6%, the viability, T/C [14] was 14.6% and the viability, T/C [15] was 3.54%. It also gave a viability, T/C [16] of 0.66%, a viability, T/C [17] of 0.34% and a viability, T/C [18] of 2.75%. It also gave a viability, T/C [19] of 1.14%, a viability, T/C [20] of 0.59% and a viability, T/C [21] of 1%. For the same compound, the viability, T/C [22] was 0.68%, the viability, T/C [23] was 0.96% and the viability, T/C [24] was 2.88%. For the same compound, the viability, T/C [25] was 1.47%, the viability, T/C [26] was 3.06% and the viability, T/C [27] was 0.97%. It also gave a viability, T/C [28] of 0.79%, a viability, T/C [29] of 1.31% and a viability, T/C [30] of 4.32%. It also gave a viability, T/C [31] of 0.73%, a viability, T/C [32] of 0.59% and a viability, T/C [33] of 3.86%. For the same compound, the viability, T/C [34] was 0.35%, the viability, T/C [35] was 0.23% and the viability, T/C [36] was 3.87%.

C=C(F)C(=O)N1CCN(c2nc(OCC3CCCN3C)nc3c2CCN(c2cccc4cccc(Cl)c24)C3)CC1CC#N (stereo unspecified) + CNC(=O)c1ccc(Nc2nc(OC3CCCC3)c3c(-c4ccc5nc(C)oc5c4)c[nH]c3n2)c(OC)c1 gave an IC50 (second compound 0.0316 µM) of 5.08 µM, an IC50 (second compound 0.1 µM) of 5.07 µM and an IC50 (second compound 0.316 µM) of 5.08 µM. The IC50 (second compound 1 µM) was 4.6 µM, the IC50 (second compound 3.16 µM) was 4.83 µM and the IC50 (second compound 10 µM) was 4.05 µM. For the same compound, the viability, T/C [1] was 108%, the viability, T/C [2] was 115% and the viability, T/C [3] was 98.6%. The viability, T/C [4] was 99.7%, the viability, T/C [5] was 85.7% and the viability, T/C [6] was 1.18%. The viability, T/C [7] was 104%, the viability, T/C [8] was 101% and the viability, T/C [9] was 96.2%. The viability, T/C [10] was 97.7%, the viability, T/C [11] was 81.5% and the viability, T/C [12] was 4.78%. It also gave a viability, T/C [13] of 102%, a viability, T/C [14] of 98.6% and a viability, T/C [15] of 89.3%. The viability, T/C [16] was 107%, the viability, T/C [17] was 83.9% and the viability, T/C [18] was 1.64%. For the same compound, the viability, T/C [19] was 100%, the viability, T/C [20] was 89.7% and the viability, T/C [21] was 89.3%. The viability, T/C [22] was 92.4%, the viability, T/C [23] was 72.9% and the viability, T/C [24] was 2.52%. The viability, T/C [25] was 85.3%, the viability, T/C [26] was 90.9% and the viability, T/C [27] was 92.9%. It also gave a viability, T/C [28] of 91.1%, a viability, T/C [29] of 77.3% and a viability, T/C [30] of 3.14%. The viability, T/C [31] was 86.3%, the viability, T/C [32] was 82.7% and the viability, T/C [33] was 83.4%. The viability, T/C [34] was 80.8%, the viability, T/C [35] was 62.8% and the viability, T/C [36] was 3.36%.
